Test results taken from paper PMC6747525, “Chk1 Inhibitor MK-8776 Restores the Sensitivity of Chemotherapeutics in P-glycoprotein Overexpressing Cancer Cells” (International Journal of Molecular Sciences, 2019).

Columns and labels:
P-glycoprotein (P-gp) [1] = molecular target: T1, P-glycoprotein (P-gp) (Homo sapiens, UniProt P08183); test: biochemical
T1 construct: gene ABCB1

P-glycoprotein (P-gp) [2] = molecular target: T1, P-glycoprotein (P-gp)

T1 sequence (P08183 whole entry): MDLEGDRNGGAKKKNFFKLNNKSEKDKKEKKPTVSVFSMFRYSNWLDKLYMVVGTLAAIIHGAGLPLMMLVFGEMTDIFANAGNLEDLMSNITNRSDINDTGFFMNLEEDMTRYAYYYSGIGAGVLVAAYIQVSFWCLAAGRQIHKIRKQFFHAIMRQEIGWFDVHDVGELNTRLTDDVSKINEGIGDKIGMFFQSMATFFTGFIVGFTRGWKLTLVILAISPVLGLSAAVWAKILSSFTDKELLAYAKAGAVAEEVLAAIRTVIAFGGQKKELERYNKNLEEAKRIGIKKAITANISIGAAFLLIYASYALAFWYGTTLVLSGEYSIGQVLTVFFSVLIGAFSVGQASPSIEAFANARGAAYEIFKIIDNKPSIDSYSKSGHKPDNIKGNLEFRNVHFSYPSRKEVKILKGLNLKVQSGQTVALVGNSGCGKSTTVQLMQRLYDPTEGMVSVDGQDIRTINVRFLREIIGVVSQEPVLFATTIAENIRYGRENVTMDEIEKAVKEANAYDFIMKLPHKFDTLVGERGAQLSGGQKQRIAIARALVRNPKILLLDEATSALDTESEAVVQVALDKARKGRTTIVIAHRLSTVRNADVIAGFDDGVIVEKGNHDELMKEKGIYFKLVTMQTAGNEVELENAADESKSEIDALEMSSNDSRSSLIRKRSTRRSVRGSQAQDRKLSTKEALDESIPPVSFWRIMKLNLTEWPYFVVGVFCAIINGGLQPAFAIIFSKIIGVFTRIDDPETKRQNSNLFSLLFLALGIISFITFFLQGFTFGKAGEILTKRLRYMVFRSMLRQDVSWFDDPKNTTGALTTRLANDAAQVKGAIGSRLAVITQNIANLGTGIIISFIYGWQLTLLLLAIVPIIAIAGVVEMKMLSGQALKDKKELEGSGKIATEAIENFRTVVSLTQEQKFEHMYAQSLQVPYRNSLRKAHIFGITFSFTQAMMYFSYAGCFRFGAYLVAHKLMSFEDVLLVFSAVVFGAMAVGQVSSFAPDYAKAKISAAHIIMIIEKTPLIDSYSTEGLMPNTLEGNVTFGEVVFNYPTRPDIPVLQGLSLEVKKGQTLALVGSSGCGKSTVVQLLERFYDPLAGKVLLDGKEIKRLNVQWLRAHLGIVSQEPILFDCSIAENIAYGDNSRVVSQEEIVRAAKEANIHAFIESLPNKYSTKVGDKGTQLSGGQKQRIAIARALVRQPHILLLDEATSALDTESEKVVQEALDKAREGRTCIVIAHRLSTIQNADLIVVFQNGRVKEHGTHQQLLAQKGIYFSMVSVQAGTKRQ

Row | EC50 (P-glycoprotein (P-gp) [1]) [µM] | Structure (SMILES) | [3H]-paclitaxel accumulation and efflux in P-gp-overexpressing KB-C2 versus pare (P-glycoprotein (P-gp) [2])
1 | 3.8 | Cn1cc(-c2cnn3c(N)c(Br)c([C@@H]4CCCNC4)nc23)cn1 [MK-8776] | –
2 | – | CC(=O)O[C@H]1C(=O)[C@@]2(C)[C@H]([C@H](OC(=O)c3ccccc3)[C@]3(O)C[C@H](OC(=O)[C@H](O)[C@@H](NC(=O)c4ccccc4)c4ccccc4)C(C)=C1C3(C)C)[C@]1(OC(C)=O)CO[C@@H]1C[C@@H]2O [paclitaxel] | [^3H]-paclitaxel efflux increased significantly compared with that in their parental KB-3-1 cells
